The text below walks through data of ChEMBL document CHEMBL5604063, “ASAP - DENV-2 NS2B-NS3 protease fluorescence dose response” (2024).

Each structure is given as a SMILES string. Where “and” joins values, the source holds several entries; their conditions need not be identical. Equal values may be shown once. A value given as a limit tells only on which side of the number the result lay.

Experiment [1] deals with T1, Genome polyprotein (dengue virus type 2, UniProt P29990). Type of experiment: functional, Thailand/16681/1984.
Experiment [2] addresses T1, Genome polyprotein. Type of experiment: functional, Thailand/16681/1984. The source holds these as a separate data set.

T1 sequence (P29990 1346-1475 limits assumed): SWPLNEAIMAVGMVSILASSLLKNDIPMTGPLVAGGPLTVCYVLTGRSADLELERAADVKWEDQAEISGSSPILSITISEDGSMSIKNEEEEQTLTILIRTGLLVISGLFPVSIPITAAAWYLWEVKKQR
T1 sequence (P29990 1476-2093 limits assumed): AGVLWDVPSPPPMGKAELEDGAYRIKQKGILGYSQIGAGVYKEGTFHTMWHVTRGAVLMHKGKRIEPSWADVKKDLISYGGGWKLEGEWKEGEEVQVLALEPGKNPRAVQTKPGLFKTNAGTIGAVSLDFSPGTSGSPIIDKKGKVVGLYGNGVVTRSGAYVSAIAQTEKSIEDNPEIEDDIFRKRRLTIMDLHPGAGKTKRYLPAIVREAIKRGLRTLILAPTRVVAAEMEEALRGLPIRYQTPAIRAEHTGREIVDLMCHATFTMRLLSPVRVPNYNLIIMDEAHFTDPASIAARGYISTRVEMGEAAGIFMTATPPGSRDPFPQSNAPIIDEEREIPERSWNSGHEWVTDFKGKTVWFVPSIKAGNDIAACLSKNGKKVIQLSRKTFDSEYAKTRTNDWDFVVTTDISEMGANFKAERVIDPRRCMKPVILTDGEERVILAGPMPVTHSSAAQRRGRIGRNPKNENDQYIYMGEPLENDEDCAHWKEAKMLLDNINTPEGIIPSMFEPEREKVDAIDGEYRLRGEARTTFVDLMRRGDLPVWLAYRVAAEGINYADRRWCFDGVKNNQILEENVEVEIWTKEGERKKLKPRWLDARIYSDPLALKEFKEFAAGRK

One may read the IC50 as the concentration that gives 50% inhibition. Read a low IC50 as higher potency. As to `NCCCCc1ccc(NC(=O)c2cc(Cl)cc3[nH]ncc23)cc1`, the IC50 in experiment [1] was over 99.5 µM; in experiment [2], over 100 µM.

Consider `O=C(Nc1ccc2c(c1)CNCC2)c1cc(Cl)cc2[nH]ncc12`, for which the IC50 in experiment [1] was over 99.5 µM; in experiment [2] it was over 100 µM.

Turning to `O=C(O)Cc1c[nH]c2cc(-c3cc(Cl)cc(NC(=O)OCc4ccccc4)c3)ccc12`, the figures for the IC50 in experiment [1] and in experiment [2] were 13.3 µM and 9.67 µM, respectively.

Turning to `CN1Cc2ccc(NC(=O)c3cc(Cl)cc4[nH]ncc34)cc2C1`, the IC50 in experiment [1] is over 99.5 µM; in experiment [2] it was over 100 µM.

As for `Cc1cc(CN)cc(NC(=O)c2cc(Cl)cc3[nH]ncc23)c1`, the IC50 in experiment [1] is 98.3 µM; in experiment [2], 85.4 µM.

As for `O=C(O)C[C@H]1CN(c2ccc(-c3cc(Cl)cc(NC(=O)OCc4ccccc4)c3)cn2)CCO1`, the half-maximal inhibitory concentration (IC50) in experiment [1] amounted to 35.2 µM; in experiment [2], 22.2 µM.

For `CC(C)NC(=O)[C@H](Nc1ccc2c(c1)CNC2)c1cc(Cl)cc2[nH]ncc12`, the IC50 was 64 µM and 37.2 µM and 98.4 µM in experiment [1]; 96.5 µM and 41.2 µM and > 100 µM and 26.4 µM in experiment [2].

Regarding `O=C(Nc1ccc2c(c1)CNC2)c1cc(Br)cc2ccccc12`, the values for the IC50 in experiment [1] and in experiment [2] were over 99.5 µM and over 100 µM, respectively.

Take `NCCc1ccc(NC(=O)c2cc(Cl)cc3[nH]ncc23)cc1`: the IC50 was over 99.5 µM in experiment [1] and over 100 µM in experiment [2].

Regarding `O=C(Nc1cc(Cl)cc(-c2cnn(Cc3ccc(C(=O)O)cc3)c2)c1)OCc1ccccc1`, the IC50 in experiment [1] is 18.2 µM; in experiment [2], 8.1 µM.

As to `C=C1C[C@H](c2cc(Cl)cc(NC(=O)OCc3ccccc3)c2)[C@@H](c2cccc(-c3nn[nH]n3)c2)C1`, the IC50 came to 6.29 µM in experiment [1] and 5.18 µM in experiment [2].

Turning to `O=C(Nc1ccc2c(c1)CNC2)c1cc(Cl)cc(C2CC2)c1`, the IC50 is over 99.5 µM in experiment [1] and over 100 µM in experiment [2].

In the case of `NCc1cc(NC(=O)c2cc(Cl)cc(NC(=O)OCc3ccccc3)c2)cc(-c2csc(CC(=O)O)c2)c1`, the half-inhibitory concentration (IC50) in experiment [1] was 64.7 µM; in experiment [2] it was over 100 µM.

For the compound `O=C(Nc1ccc2c(c1)CNC2)c1cc(Cl)cc2c1CCC2`, the IC50 was over 99.5 µM in experiment [1] and over 100 µM in experiment [2].

In the case of `O=C(O)c1cc2cc(-c3cc(Cl)cc4ncccc34)ccc2[nH]1`, the figures for the IC50 in experiment [1] and in experiment [2] were 41.5 µM and 50.9 µM, respectively.

For the compound `O=C(O)c1cc2cccc(Cc3c[nH]c4ccc(Cl)cc34)c2[nH]1`, the IC50 in experiment [1] was 52.1 µM; in experiment [2], 21.6 µM.

With `O=C(Nc1ccc2c(c1)CNC2)c1n[nH]c(=O)c2ccccc12`, the IC50 is 36.8 µM in experiment [1] and over 100 µM in experiment [2].

Take `O=C1OCc2ccc(NC(=O)c3cc(Cl)cc4[nH]ncc34)cc21`: the IC50 was over 99.5 µM in experiment [1] and over 100 µM in experiment [2].

For the compound `O=C(Nc1ccc2c(c1)CNC2)c1n[nH]c2ncc(Br)cc12`, the IC50 is over 99.5 µM in experiment [1] and over 100 µM in experiment [2].

With `Cc1c(C(=O)Nc2cc(-c3cnn(C)c3)ccn2)cc(C2CC2)n1C`, the IC50 in experiment [1] is over 99.5 µM; in experiment [2], over 100 µM.

Consider `N#Cc1cc(-c2ccc3[nH]c(C(=O)O)cc3c2)c2nc[nH]c2c1`, for which the IC50 in experiment [1] was over 99.5 µM; in experiment [2], over 100 µM.

Take `O=C(Nc1ccc2c(c1)CNC2)c1ccccn1`: the 50% inhibitory concentration (IC50) was over 99.5 µM in experiment [1] and over 100 µM in experiment [2].

For the compound `N#Cc1ccc(Cl)c(C(=O)Nc2ccc3c(c2)CNC3)c1`, the IC50 in experiment [1] was over 99.5 µM; in experiment [2] it was over 100 µM.

Consider `O=C(Nc1ccc2c(c1)CNC2)c1cc(Br)cc2[nH]c(-c3ccccc3)nc12`, for which the IC50 was 2.73 µM and 2.34 µM in experiment [1]; 5.95 µM and 6.13 µM in experiment [2].

On to `Cc1cc(CC(=O)O)ccc1Cc1c[nH]c2ccc(Cl)cc12`, for which the results for the IC50 in experiment [1] and in experiment [2] were over 99.5 µM and over 100 µM, respectively.

On to `O=C(Nc1ccc2c(c1)CNC2)c1ccnc(CO)c1`, for which the IC50 is over 99.5 µM in experiment [1] and over 100 µM in experiment [2].

Turning to `Cc1c(C(=O)Nc2cc(C(=O)N(C)C)ccn2)cc(C2CC2)n1C`, the IC50 in experiment [1] is over 99.5 µM; in experiment [2], over 100 µM.

For the compound `O=C(Nc1ccc([C@H]2CCNC2)cc1)c1cc(Cl)cc2[nH]ncc12`, the IC50 in experiment [1] amounted to 87.8 µM; in experiment [2] it was 97.3 µM.

For `O=C(Nc1ccc2c(c1)CNC2)c1cccnc1`, the IC50 in experiment [1] is over 99.5 µM; in experiment [2] it was over 100 µM.

Consider `CC(C)c1cc(Br)cc(C(=O)Nc2ccc3c(c2)CNC3)c1`, for which the figures for the IC50 in experiment [1] and in experiment [2] were over 99.5 µM and over 100 µM, respectively.

For `N[C@H]1CC[C@H](c2ccc(NC(=O)c3cc(Cl)cc4[nH]ncc34)cc2)C1`, the IC50 in experiment [1] was over 99.5 µM; in experiment [2], over 100 µM.

In the case of `Cc1ccc(C(C)C)c(C(=O)Nc2ccc3c(c2)CNC3)c1`, the IC50 in experiment [1] is over 99.5 µM; in experiment [2], over 100 µM.

Turning to `O=C(Nc1ccc2c(c1)CNC2)c1cc(Br)cc2c1OCO2`, the IC50 in experiment [1] is over 99.5 µM; in experiment [2], over 100 µM.

Consider `O=C(O)COc1cc2c(cc1Cc1c[nH]c3ccc(Cl)cc13)OCO2`, for which the IC50 in experiment [1] was over 99.5 µM; in experiment [2] it was 89 µM.

As for `NCCCc1ccnc(NC(=O)c2csc(C3CC3)n2)c1`, the figures for the IC50 in experiment [1] and in experiment [2] were over 99.5 µM and over 100 µM, respectively.

For `Cc1ccc(-c2cc(CN)cc([C@@H]3C[C@H]3c3cc(Cl)cc(NC(=O)OCc4ccccc4)c3)c2)cn1`, the IC50 in experiment [1] is 31.5 µM; in experiment [2], over 100 µM.

For the compound `O=C(Nc1ccc2c(c1)CNC2)[C@H]1CCc2ccccc21`, the IC50 in experiment [1] is over 99.5 µM; in experiment [2], over 100 µM.

Regarding `O=C(Nc1ccc2c(c1)CNC2)c1ccncc1`, the figures for the IC50 in experiment [1] and in experiment [2] were over 99.5 µM and over 100 µM, respectively.

`COC(=O)c1cc(Br)cc2c(Cc3ccc(-c4nnn[nH]4)cc3)c[nH]c12`: the IC50 is 20.3 µM in experiment [1] and 13.6 µM in experiment [2].

As to `O=C1Cc2cc(NC(=O)c3cc(Cl)cc4[nH]ncc34)ccc2N1`, the IC50 is over 99.5 µM in experiment [1] and over 100 µM in experiment [2].

As for `Cc1c(C(=O)O)sc2ncc(Cc3c[nH]c4ccc(Cl)cc34)cc12`, the IC50 in experiment [1] is 46.7 µM; in experiment [2], 25.3 µM.

In the case of `O=C(Nc1ccc(C2CNC2)cc1)c1cc(Cl)cc2[nH]ncc12`, the figures for the IC50 in experiment [1] and in experiment [2] were over 99.5 µM and over 100 µM, respectively.

Consider `CCc1nc2c(C(=O)Nc3ccc4c(c3)CNC4)cc(Br)cc2[nH]1`, for which the IC50 in experiment [1] is 24.7 µM; in experiment [2], 25.4 µM and > 100 µM.

As to `Clc1ccc2nc(C3CCOCC3)n(Cc3ccc4c(c3)CNC4)c2c1`, the IC50 in experiment [1] is over 99.5 µM; in experiment [2] it was over 100 µM.

On to `CC(C)c1nc2cc(Cl)ccc2n1Cc1ccc(-c2nn[nH]n2)cc1`, for which the IC50 is over 99.5 µM in experiment [1] and over 100 µM in experiment [2].

Consider `O=C(Nc1ccc2c(c1)C[C@H](O)C2)c1cc(Cl)cc2[nH]ncc12`, for which the IC50 in experiment [1] was over 99.5 µM; in experiment [2], over 100 µM.

Regarding `O=C(Nc1cc(Cl)cc(-c2cc(NCc3ccccc3)c(C(=O)O)cn2)c1)OCc1ccccc1`, the results for the IC50 in experiment [1] and in experiment [2] were 7.58 µM and 5.35 µM, respectively.

On to `N#Cc1cccc(C[C@H](O)c2cc(Cl)cc(NC(=O)OCc3ccccc3)c2)c1`, for which the IC50 in experiment [1] is over 99.5 µM; in experiment [2], over 100 µM.

On to `O=C(Nc1ccc(C2CCNCC2)cc1)c1cc(Cl)cc2[nH]ncc12`, for which the IC50 was over 99.5 µM in experiment [1] and over 100 µM in experiment [2].

In the case of `Cc1cc(-c2ccc3[nH]c(C(=O)O)cc3c2)c2cc[nH]c(=O)c2c1`, the IC50 is over 99.5 µM in experiment [1] and over 100 µM in experiment [2].

Take `Cn1cc(-c2cc(CN)cc([C@@H]3C[C@H]3c3cc(Cl)cc(NC(=O)OCc4ccccc4)c3)c2)cn1`: the IC50 in experiment [1] was determined as 42 µM; in experiment [2], 51 µM.
